Tested on: P12-Ichikawa
Experiment: cell viability relative to DMSO control; higher = less cytotoxic
Conditions: 48 h
Procedure, shortened: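 NOMO1, SEM and P12-Ichikawa leukemia cells spent at least four passages adapting to each medium before use. They were seeded at 500 cells/well (NOMO1, SEM) or 1000 cells/well (P12-Ichikawa) in 5 μl in 1536-well plates and pin-dosed with library compounds in DMSO at 11 threefold steps from 47 μM down to 0.79 nM. After 48 h at 37°C, CellTiter-Glo One luminescence was read. Viability is reported as a percentage of the DMSO wells on each plate, with cell-free wells as background.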

[1] = HPLM + 10% dialyzed FBS, 0.000781 µM
[2] = HPLM + 10% dialyzed FBS, 0.00234 µM
[3] = HPLM + 10% dialyzed FBS, 0.00702 µM
[4] = HPLM + 10% dialyzed FBS, 0.0211 µM
[5] = HPLM + 10% dialyzed FBS, 0.0632 µM
[6] = HPLM + 10% dialyzed FBS, 0.19 µM
[7] = HPLM + 10% dialyzed FBS, 0.569 µM
[8] = HPLM + 10% dialyzed FBS, 1.71 µM
[9] = HPLM + 10% dialyzed FBS, 5.12 µM
[10] = HPLM + 10% dialyzed FBS, 15.4 µM
[11] = HPLM + 10% dialyzed FBS, 46.1 µM
[12] = RPMI 5 mM glucose + 10% FBS, 0.000781 µM
[13] = RPMI 5 mM glucose + 10% FBS, 0.00234 µM
[14] = RPMI 5 mM glucose + 10% FBS, 0.00702 µM
[15] = RPMI 5 mM glucose + 10% FBS, 0.0211 µM
[16] = RPMI 5 mM glucose + 10% FBS, 0.0632 µM
[17] = RPMI 5 mM glucose + 10% FBS, 0.19 µM
[18] = RPMI 5 mM glucose + 10% FBS, 0.569 µM
[19] = RPMI 5 mM glucose + 10% FBS, 1.71 µM
[20] = RPMI 5 mM glucose + 10% FBS, 5.12 µM
[21] = RPMI 5 mM glucose + 10% FBS, 15.4 µM
[22] = RPMI 5 mM glucose + 10% FBS, 46.1 µM
[23] = RPMI 5 mM glucose + 10% dialyzed FBS, 0.000781 µM
[24] = RPMI 5 mM glucose + 10% dialyzed FBS, 0.00234 µM
[25] = RPMI 5 mM glucose + 10% dialyzed FBS, 0.00702 µM
[26] = RPMI 5 mM glucose + 10% dialyzed FBS, 0.0211 µM
[27] = RPMI 5 mM glucose + 10% dialyzed FBS, 0.0632 µM
[28] = RPMI 5 mM glucose + 10% dialyzed FBS, 0.19 µM
[29] = RPMI 5 mM glucose + 10% dialyzed FBS, 0.569 µM
[30] = RPMI 5 mM glucose + 10% dialyzed FBS, 1.71 µM
[31] = RPMI 5 mM glucose + 10% dialyzed FBS, 5.12 µM
[32] = RPMI 5 mM glucose + 10% dialyzed FBS, 15.4 µM
[33] = RPMI 5 mM glucose + 10% dialyzed FBS, 46.1 µM

| SMILES | cell viability [1] [%] | cell viability [2] [%] | cell viability [3] [%] | cell viability [4] [%] | cell viability [5] [%] | cell viability [6] [%] | cell viability [7] [%] | cell viability [8] [%] | cell viability [9] [%] | cell viability [10] [%] | cell viability [11] [%] | cell viability [12] [%] | cell viability [13] [%] | cell viability [14] [%] | cell viability [15] [%] | cell viability [16] [%] | cell viability [17] [%] | cell viability [18] [%] | cell viability [19] [%] | cell viability [20] [%] | cell viability [21] [%] | cell viability [22] [%] | cell viability [23] [%] | cell viability [24] [%] | cell viability [25] [%] | cell viability [26] [%] | cell viability [27] [%] | cell viability [28] [%] | cell viability [29] [%] | cell viability [30] [%] | cell viability [31] [%] | cell viability [32] [%] | cell viability [33] [%] |
| --- | --- | --- | --- | --- | --- | --- | --- | --- | --- | --- | --- | --- | --- | --- | --- | --- | --- | --- | --- | --- | --- | --- | --- | --- | --- | --- | --- | --- | --- | --- | --- | --- | --- |
| Cc1cc(-c2ccc(CC(=O)Nc3ccc(-c4cccnc4)cc3)cc2)ccn1 | 113 | 113 | 121 | 115 | 118 | 111 | 112 | 108 | 97.7 | 57.1 | 70.2 | 117 | 119 | 121 | 117 | 118 | 132 | 111 | 106 | 111 | 89.9 | 62.6 | 112 | 110 | 111 | 114 | 119 | 108 | 104 | 106 | 96.3 | 69.1 | 55.7 |
| CCC[S+](=O)([O-])Nc1ccc(F)c(C(=O)c2c[nH]c3ncc(-c4ccc(Cl)cc4)cc23)c1F | 116 | 110 | 107 | 115 | 114 | 107 | 108 | 105 | 99.9 | 98.5 | 93.5 | 116 | 109 | 117 | 110 | 118 | 110 | 99.1 | 110 | 108 | 96.4 | 98.2 | 124 | 120 | 122 | 120 | 125 | 120 | 113 | 107 | 108 | 103 | 95.2 |
| C[C@]12CCC(=O)C(O)=C1CC[C@@H]1[C@@H]2CC[C@]2(C)C(=O)CC[C@@H]12 | 122 | 125 | 122 | 119 | 119 | 122 | 128 | 117 | 120 | 111 | 104 | – | – | – | – | – | – | – | – | – | – | – | 112 | 124 | 132 | 121 | 121 | 115 | 130 | 126 | 101 | 108 | 104 |
| N[C@@H](Cc1cc(I)c(Oc2cc(I)c(O)c(I)c2)c(I)c1)C(=O)O | 118 | 116 | 106 | 113 | 113 | 103 | 106 | 109 | 106 | 101 | 98.6 | 126 | 120 | 121 | 113 | 123 | 124 | 122 | 107 | 112 | 114 | 104 | 111 | 107 | 108 | 109 | 109 | 114 | 103 | 111 | 104 | 103 | 101 |
| CC[C@@H](C)[C@H](NC(=O)[C@H](CC1CCCCC1)NC(=O)c1ccno1)C(=O)N1CCC2(CCc3ccccc32)CC1 | 94 | 89.4 | 92.7 | 88.9 | 95 | 94.1 | 75.8 | 80.8 | 89.2 | 78.9 | 83.3 | 79 | 81.5 | 101 | 88.7 | 89.8 | 85.9 | 64.5 | 71.9 | 99.8 | 70.1 | 74.6 | 84.3 | 89.3 | 83.2 | 81.4 | 77.1 | 82.2 | 79.6 | 82 | 84.6 | 76 | 77 |
| CCCCCCCN(CC)CCCC(O)c1ccc(NS(C)(=O)=O)cc1.CCCCCCCN(CC)CCCC(O)c1ccc(NS(C)(=O)=O)cc1.O=C(O)/C=C/C(=O)O (stereo not drawn) | 111 | 108 | 116 | 111 | 101 | 125 | 113 | 112 | 112 | 88.9 | 77.7 | 107 | 118 | 113 | 108 | 85.4 | 115 | 116 | 111 | 102 | 89.6 | 69.1 | 100 | 101 | 106 | 113 | 94.8 | 108 | 111 | 113 | 98.9 | 93 | 69.2 |
| C=C1C(=O)O[C@@H]2[C@H]3O[C@]3(C)CC/C=C(\C)CC[C@@H]12 | 106 | 104 | 114 | 114 | 119 | 124 | 122 | 79.6 | 5.39 | 2.97 | 2.95 | 103 | 109 | 117 | 117 | 127 | 127 | 125 | 101 | 13.5 | 3.52 | 2.86 | 105 | 112 | 118 | 125 | 127 | 123 | 121 | 91.8 | 5.63 | 2.98 | 2.57 |
| CCOC(=O)c1c(/C(C#N)=C\N)c2ccc(Cl)c(Cl)c2n1C | 90.1 | 94.9 | 84.9 | 97.5 | 91.7 | 92.2 | 92.1 | 91.6 | 84.7 | 83 | 91.7 | 88.1 | 88.7 | 85.5 | 94.8 | 83.2 | 86.3 | 81.1 | 91 | 82.8 | 81.2 | 87.4 | 84.5 | 86.2 | 89.9 | 92.8 | 90.6 | 96.9 | 87.9 | 88.7 | 89 | 92.8 | 90.8 |
| O=C(/C=C/c1cccnc1)NCCCCC1CCN(C(=O)c2ccccc2)CC1 | 103 | 72.1 | 15.1 | 7.38 | 5.18 | 4.94 | 4.8 | 4.59 | 4.4 | 4 | 2.9 | 103 | 109 | 16.9 | 6.84 | 5.28 | 5.01 | 4.19 | 4.32 | 3.69 | 2.71 | 1.74 | 102 | 109 | 24.4 | 8.02 | 5.06 | 4.88 | 4.59 | 4.67 | 3.92 | 2.96 | 2.11 |
| CN1C(=O)C(=C/2N(C(=O)N(C3CC3)C(=O)C2=C1/NC4=CC=C(I)C=C4F)C5=CC=CC(=C5)NC(C)=O)\C | 121 | 130 | 122 | 123 | 113 | 112 | 101 | 90.9 | 12.8 | 4.68 | 4.28 | – | – | – | – | – | – | – | – | – | – | – | – | – | – | – | – | – | – | – | – | – | – |
| Cc1ccc(Nc2nccc(N(C)c3ccc4c(C)n(C)nc4c3)n2)cc1[S+](N)(=O)[O-] | 105 | 102 | 105 | 110 | 108 | 114 | 113 | 111 | 104 | 91.9 | 20.8 | 106 | 115 | 109 | 109 | 113 | 116 | 113 | 111 | 120 | 78.4 | 23.7 | 99.7 | 101 | 104 | 102 | 102 | 99.9 | 110 | 107 | 108 | 83.3 | 27.8 |
| Cc1ccnc(N[S+](=O)([O-])c2ccc(NC(=O)Nc3ccc([S+](=O)([O-])Nc4nccc(C)n4)cc3)cc2)n1 | 92.4 | 97.5 | 104 | 108 | 102 | 47.4 | 56.9 | 7.44 | 8.58 | 9.29 | 7.33 | 87.9 | 85.5 | 94.6 | 106 | 114 | 58.6 | 60.3 | 7.51 | 7.48 | 8.73 | 5.6 | 86.9 | 97.1 | 95.4 | 101 | 102 | 46.7 | 59.4 | 7.71 | 7.35 | 8.39 | 5.02 |

Reference: the supplement of paper PMC11451515
